Read-outs that look alike come from different tables or passages of the source.
How the values were obtained:
[1] = test system: ZSCAN4 depleted Tu167 cells; details: increasing doses, ZSCAN4 depleted Tu167 cells compared to isogenic NTC shRNA cells, MTT
Source text: FIG. 14. […] All data shown as mean±S.E.M. observed in triplicate in at least three independent experiments. Asterisks indicate: *p<0.05, **p<0.01, ***p<0.001.
Another hallmark of CSCs is multi-drug resistance, a major factor contributing to cancer recurrence. Therefore, we examined the role of ZSCAN4 in response to genotoxic drugs. To define the effect of ZSCAN4 on drug resistance, we measured cell viability after increasing doses of the DNA damaging drugs in ZSCAN4 depleted and control Tu167 cells.

tet-ZSCAN4 cells = assay: Dox-regulated ZSCAN4 induction and clearance, immunoblot; assay type: cell-based, human
Procedure: FIG. 9. A, An illustration of the tet-ZSCAN4 expression vector. B, Image of tet-ZSCAN4 (Tu167) cells showing expression of GFP. C, Immunoblot analyses indicate ZSCAN4 is tightly regulated by Dox and localizes to the nucleus; Controls: LDH (cytosol), Lamin-B (nucleus). D, Doxycycline addition to the culture medium (Dox+) induces ZSCAN4 within 6 hours.
Immunoblot Assays. Cytosolic proteins were extracted by Cytoskeleton buffer (10 mM PIPES, 300 mM sucrose, 100 mM NaCl, 3 mM MgCl2, 1 mM EGTA and 0.5% Triton X100), and nucleoplasm fraction was isolated. Next, pellets were lysed in urea solution (8 M Urea in 0.01 Tris pH 8+0.1M NaH2PO4) and sonicated. Samples were electrophoresed in polyacrylamide gels. PVDF membranes were blocked with 5% nonfat milk or Superblock (Thermo Fisher Scientific) for 1 hour, then incubated overnight at 4° C. with the indicated primary antibodies in blocking solution (Table 2). Membranes were washed and incubated with secondary antibodies (1:5000) for 1 hour. Secondary antibodies were visualized by ECL Chemiluminescence (ThermoFisher Scientific). […]

[2] = test system: OCT3/4, SOX2, KLF4 and NANOG; assay: qPCR of pluripotent stem cell factors after ZSCAN4 knockdown; assay type: cell-based, human; details: vs NTC-shRNA
Procedure: RNA extraction and Quantitative Reverse Transcriptase Polymerase Chain Reaction (qRT-PCR). One microgram of total RNA, isolated with Trizol, was reverse transcribed by Superscript III (Invitrogen) following the manufacturer's protocol. For qPCR, 10 ng cDNA was used per well in triplicate using SYBR green reaction mix (Roche) following the manufacturer's instructions with corresponding primers (Table 1). Reactions were run on the LightCycler 480 system (Roche). Fold induction was calculated by the delta-delta Ct method.
ZSCAN4 shRNAs were tested (19-mer sense, a hairpin loop, and 19-mer anti-sense oligos): shRNA1 (SEQ ID NO:3): 5′-[…] G-3′, shRNA2 (SEQ ID NO:4): 5′-[…] TG-3, shRNA3 (SEQ ID NO:5): 5′-[…] T-3 and two were cloned into the HuSH shRNA Plasmid pRFP-C-RS (Origene). Vectors were stably transfected into Tu167 or 012SCC cells by Effectene (QIAGEN) according to the manufacturer's protocol. As controls, isogenic cell lines were also generated expressing a non-targeting control shRNA (NTC-shRNA) or an Empty vector (same vector without an shRNA cassette). Cell lines were selected with 1 μg/ml Puromycin (ThermoFisher Scientific). Knockdown was confirmed by immunostaining and by qPCR.
Next, we used two of the shRNA sequences (shRNA1 and shRNA2) to generate stable knockdown cell lines (in Tu167 and 012SCC cells). Isogenic cells for each cell line with NTC-shRNA, or empty vector were used as controls. […] Our results further indicate a decrease in the CSC markers BMI1 and EZH2 (FIG. 5C).

N.N.[Cl][Pt][Cl] [CPT, Cisplatin]
cell viability [1]: significantly decreased cell viability | cell viability ([1]; listed as Cisplatin): hypersensitivity

C[C@H]1c2cccc(O)c2C(=O)C2=C(O)[C@]3(O)C(=O)C(C(N)=O)=C(O)[C@@H](N(C)C)[C@@H]3[C@@H](O)[C@@H]21 [Dox, Doxycycline]
time until ZSCAN4 is detectable after addition of Dox to the medium (tet-ZSCAN4 cells): ≤ 6 h

Bleomycin [BLM]
cell viability [1]: dramatically reduced cell viability | cell viability ([1]; listed as Bleomycin): hypersensitivity

shRNA1: ZSCAN4 shRNA, SEQ ID NO:3: 5′-GAGAACGGTCCTAGGCCTGTCAAGAGGAGAACGGTCCTAGGCCTG-3′
expression of OCT3/4, SOX2, KLF4 and NANOG ([2]; 012SCC stable knockdown cells): significant downregulation | expression of OCT3/4, SOX2, KLF4 and NANOG ([2]; 012SCC stable knockdown cells, listed as shRNA 1): decreased expression | expression of OCT3/4, SOX2, KLF4 and NANOG ([2]; Tu167 stable knockdown cells): significant downregulation | expression of OCT3/4, SOX2, KLF4 and NANOG ([2]; Tu167 stable knockdown cells, listed as shRNA 1): decreased expression

shRNA2: ZSCAN4 shRNA, SEQ ID NO:4: 5′-GATATCAGACCTACGGGTGTCAAGAGGATATCAGACCTACGGGTG-3′
expression of OCT3/4, SOX2, KLF4 and NANOG ([2]; 012SCC stable knockdown cells): significant downregulation | expression of OCT3/4, SOX2, KLF4 and NANOG ([2]; 012SCC stable knockdown cells, listed as shRNA 2): decreased expression | expression of OCT3/4, SOX2, KLF4 and NANOG ([2]; Tu167 stable knockdown cells): significant downregulation | expression of OCT3/4, SOX2, KLF4 and NANOG ([2]; Tu167 stable knockdown cells, listed as shRNA 2): decreased expression

From patent US12540173B2, “Methods of treating cancer by targeting ZSCAN4 activity in cancer stem cells” (University of Maryland, Baltimore, priority 2019, dated 2026)
